The structures appear in SMILES notation.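 Compound exposure: 48 hours, 5 concentrations, 96-well plates. GI50 = concentration required for 50% inhibition of growth.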 The source made the active and inactive calls. Cut-off read from the data, not from the text of the source: active = GI50 up to about 1.1 µM and inactive = higher. Bounds are passed on as bounds.

Among the test systems are DMS-273; KM-20L2; LXFL 529; M19-MEL; SNB-78; XF498; DLD-1; HOP-18; RXF 631.
Assay in all cases: growth of human tumour cells (NCI), 48 h

Consider `CC1(C)C(c2ccccc2)C12CCC1(C2=O)C(c2ccccc2)C1(C)C` (centres undefined), for which the GI50 with DMS-273 is 22.1 µM (inactive); in the test with KM-20L2, 20.3 µM (inactive); in the test with LXFL 529, 31.5 µM (inactive); with M19-MEL it was 24.6 µM (inactive); in the test on SNB-78, 24.6 µM (inactive); in the test with XF498, 18.7 µM (inactive).
Turning to `O=C1c2cccc3cc([N+](=O)[O-])cc(c23)C(=O)N1NC1=NCCN1`, the GI50 in the test on DLD-1, with DMS-273, in the test with HOP-18, in the test with KM-20L2, with LXFL 529 and in the test on M19-MEL was > 100 µM (inactive) in each case. Further, the GI50 with RXF 631, with SNB-78 and with XF498 was > 100 µM (inactive) each time.
Turning to `C=CCOCCCCC(C(C)=O)C(=O)OC` (centres undefined), the GI50 in the test with DLD-1, in the test on HOP-18, with KM-20L2, in the test on LXFL 529, in the test on M19-MEL and in the test on SNB-78 was > 100 µM (inactive) throughout. Besides, in the test with XF498, the GI50 is > 100 µM (inactive).
Consider `Cc1cc(Cl)ccc1NC(=O)CC1SC(N)=NC1=O` (centres undefined), for which the GI50 with DLD-1, with DMS-273, with HOP-18, in the test with KM-20L2, in the test on LXFL 529 and with M19-MEL was > 100 µM (inactive) each time. Further, in the test with RXF 631, the GI50 is > 100 µM (inactive).
Turning to `O=C1c2ccccc2C(=O)c2sc(Nc3ccc(Cl)c(Cl)c3)nc21`, the GI50 with DLD-1 was 2.15 µM (inactive); with DMS-273 it was 5.3 µM (inactive); in the test with HOP-18, 5.06 µM (inactive); in the test on KM-20L2, 19.5 µM (inactive); in the test on LXFL 529, 1.82 µM (inactive); in the test on M19-MEL, 1.12 µM (inactive). Besides, the GI50 in the test with RXF 631 was 7.98 µM (inactive); in the test with SNB-78, 2.52 µM (inactive); in the test on XF498 it was 2.54 µM (inactive).
As to `Nc1nc2ncn(CCO)c2c(=S)[nH]1`, the GI50 in the test on DLD-1, with DMS-273, in the test on HOP-18, in the test with KM-20L2, in the test with LXFL 529 and in the test with M19-MEL was > 100 µM (inactive) each time. Moreover, the GI50 in the test with SNB-78 is > 100 µM (inactive).
As to `CC(C)CC(=O)N1CCN(C(=O)CC(C)C)c2ccccc21`, the GI50 in the test on DLD-1 is > 100 µM (inactive); in the test with DMS-273, > 100 µM (inactive); in the test with HOP-18, 10.1 µM (inactive); in the test with KM-20L2 it was > 100 µM (inactive); in the test with LXFL 529, > 100 µM (inactive); in the test with M19-MEL, > 100 µM (inactive). The GI50 is > 100 µM (inactive) in the test on RXF 631, 91.6 µM (inactive) with SNB-78 and > 100 µM (inactive) in the test on XF498.
Turning to `O=C1[C@@H](c2ccc(Cl)cc2)[C@H]2CC=C[C@H]2N1O`, the GI50 in the test with DLD-1 is > 100 µM (inactive); with DMS-273 it was > 100 µM (inactive); in the test on LXFL 529 it was > 100 µM (inactive); in the test with M19-MEL, > 100 µM (inactive); in the test on RXF 631, 39.7 µM (inactive); with SNB-78, > 100 µM (inactive). The GI50 in the test with XF498 is > 100 µM (inactive).
For the molecule `O=[N+]([O-])c1ccccc1[S+]([O-])c1ccccc1` (centres undefined), the GI50 was 71 µM (inactive) in the test with DLD-1; 47.2 µM (inactive) with DMS-273; > 100 µM (inactive) in the test on LXFL 529; 21.3 µM (inactive) in the test with M19-MEL; 56.9 µM (inactive) in the test with SNB-78; > 100 µM (inactive) in the test on XF498.
In the case of `CCc1cccc(C)c1NC(=O)NS(=O)(=O)c1ccc(C)cc1`, the GI50 in the test on DLD-1, with DMS-273, in the test with HOP-18, with KM-20L2, in the test on LXFL 529 and in the test on M19-MEL was > 100 µM (inactive) each time. Moreover, the GI50 in the test with RXF 631, in the test with SNB-78 and in the test on XF498 was > 100 µM (inactive) each time.
As for `CC(C)C(=O)Nc1nc2[nH]cnc2c(=O)[nH]1`, the GI50 in the test with DLD-1, in the test with DMS-273, in the test on HOP-18, with KM-20L2, in the test on LXFL 529 and in the test with M19-MEL was > 100 µM (inactive) each time. Further, the GI50 with RXF 631, in the test with SNB-78 and in the test on XF498 was > 100 µM (inactive) each time.
For the molecule `CC1=C2C(c3ccccc3)(c3ccccc3)C3C=CC2(C=N3)N(C(=O)NC2CCCCC2)C1=O` (centres undefined), the GI50 with DMS-273 was 17.9 µM (inactive); in the test with HOP-18, 18.7 µM (inactive); with KM-20L2, 16.8 µM (inactive); in the test on LXFL 529, 16.6 µM (inactive); in the test on RXF 631, 12.7 µM (inactive); in the test on SNB-78, 16.3 µM (inactive).
For `COC(=O)c1cc2c(nc1C)-c1ccccc1OS2(=O)=O`, the GI50 in the test on DLD-1, in the test with DMS-273, in the test on KM-20L2, in the test with LXFL 529, in the test on M19-MEL and in the test with RXF 631 was > 100 µM (inactive) each time. Moreover, the GI50 is 82.8 µM (inactive) in the test with SNB-78 and 56.6 µM (inactive) with XF498.
As for `CSc1nc2c(c(O)c(C)c(=O)n2C2OC(COC(C)=O)C(OC(C)=O)C(OC(C)=O)C2OC(C)=O)c(=O)n1C` (centres undefined), the GI50 in the test with DLD-1, in the test with DMS-273, in the test on HOP-18, in the test with KM-20L2, in the test with LXFL 529 and with RXF 631 was > 100 µM (inactive) each time. Moreover, the GI50 in the test on SNB-78 and in the test with XF498 was > 100 µM (inactive) throughout.
Turning to `N=C1OC(c2cccc(Cl)c2)C(NNS(=O)(=O)c2ccccc2)=C1O` (centres undefined), the GI50 with DLD-1 is 15 µM (inactive); with DMS-273 it was 32.4 µM (inactive); in the test with HOP-18, > 100 µM (inactive); with KM-20L2 it was 39.4 µM (inactive); in the test on LXFL 529, 16.8 µM (inactive); with M19-MEL it was 24 µM (inactive). The GI50 in the test on SNB-78 was 27.4 µM (inactive).
Take `Cc1ccc(C2=C(c3ccccc3)C(O)(c3ccccc3)C(c3ccccc3)=C2c2ccc(C)cc2)cc1`: the GI50 with DLD-1, in the test with HOP-18, with KM-20L2, in the test on LXFL 529, with M19-MEL and in the test on RXF 631 was > 100 µM (inactive) throughout. Moreover, the results for the GI50 with SNB-78 and in the test with XF498 were > 100 µM (inactive) and 44.5 µM (inactive), respectively.
In the case of `CC(C)(C)c1cc(-c2c3nc(c(-c4cc(C(C)(C)C)cc(C(C)(C)C)c4)c4ccc([nH]4)c(-c4cc(C(C)(C)C)cc(C(C)(C)C)c4)c4nc(c(-c5cc(C(C)(C)C)cc(C(C)(C)C)c5)c5ccc2[nH]5)C=C4)C=C3)cc(C(C)(C)C)c1`, the GI50 with DLD-1, with DMS-273, in the test with HOP-18, in the test with KM-20L2, in the test with LXFL 529 and with RXF 631 was > 100 µM (inactive) each time. The GI50 in the test with SNB-78 and with XF498 was > 100 µM (inactive) each time.
In the case of `O=[N+]([O-])c1c(/C=N/c2ccccc2)oc(-c2ccc3c(c2)OCO3)c1-c1ccc2c(c1)OCO2`, the GI50 in the test on DLD-1, in the test with DMS-273, with KM-20L2, in the test on LXFL 529, in the test on M19-MEL and in the test on RXF 631 was > 100 µM (inactive) throughout. The GI50 with SNB-78 and with XF498 was > 100 µM (inactive) in each case.
Regarding `CN(C)c1n/c(=N/c2ncn[nH]2)ss1`, the GI50 with DLD-1, in the test with DMS-273, with HOP-18, in the test with KM-20L2, with LXFL 529 and with M19-MEL was > 100 µM (inactive) throughout. The GI50 in the test with SNB-78 and with XF498 was > 100 µM (inactive) in each case.
As to `O=C(O)COc1ccc(C(=O)/C(SS/C(C(=O)c2ccc(OCC(=O)O)c(Cl)c2Cl)=C2\C=C(c3ccc(Cl)cc3)SS2)=C2/C=C(c3ccc(Cl)cc3)SS2)c(Cl)c1Cl`, the GI50 was 11.6 µM (inactive) in the test on DLD-1; 18.1 µM (inactive) with DMS-273; 7.73 µM (inactive) in the test with HOP-18; 25.1 µM (inactive) in the test with KM-20L2; 4.61 µM (inactive) in the test on LXFL 529; 7.74 µM (inactive) in the test on M19-MEL. The GI50 is 12.1 µM (inactive) with RXF 631 and 6.7 µM (inactive) in the test with SNB-78.
Regarding `COc1cc(C2c3cc4c(cc3[C@@H](Nc3ccc(N)cc3)C3COC(=O)[C@H]23)OCO4)cc(OC)c1O` (some centres undefined), the GI50 with DLD-1 was 4.57 µM (inactive); in the test with DMS-273 it was 0.361 µM (active); in the test with HOP-18, 9.89 µM (inactive); in the test on KM-20L2, 1.94 µM (inactive); with LXFL 529, 8.59 µM (inactive); with M19-MEL, 2.91 µM (inactive). The figures for the GI50 in the test on SNB-78 and in the test on XF498 were 9.16 µM (inactive) and 1.45 µM (inactive), respectively.
Take `CC(=O)OC1CC[C@@]2(C)C(CC[C@]3(C)C2CC=C2[C@@H]4CC(C)(C)CCC4(C)CCC23C)[C@@]1(C)C(=O)O` (some centres undefined): the GI50 in the test on DLD-1 was 10.1 µM (inactive); in the test on DMS-273 it was 16.4 µM (inactive); in the test with HOP-18, 21.9 µM (inactive); in the test on KM-20L2, 13.9 µM (inactive); in the test with LXFL 529 it was 13.3 µM (inactive); in the test on M19-MEL, 22.2 µM (inactive). The GI50 in the test on RXF 631 is 12.9 µM (inactive); in the test on SNB-78, 20.5 µM (inactive); in the test on XF498 it was 20.5 µM (inactive).
For the molecule `CN1CC(=O)N(C)c2[nH]cnc2C1=O`, the GI50 in the test on DLD-1, with DMS-273, in the test with HOP-18, with LXFL 529, in the test on M19-MEL and with RXF 631 was > 100 µM (inactive) each time. Further, the GI50 in the test on SNB-78 was > 100 µM (inactive); in the test on XF498, 80.9 µM (inactive).
